The results in this text go back to patent US7772430B2, “Derivatives of arylsulfonamido-substituted hydroxamic acid as matrix metalloproteinases inhibitors” (Protera S.R.L., priority 2004, dated 2010).

Each structure is given as a SMILES string.

Data set [1] concerns the target T1, Catalytic domain of MMP-12 (Homo sapiens, UniProt P39900).
T1 construct: Catalytic domain of MMP-12 was cloned, expressed and purified; made in house
Nature of the data set: In vitro inhibition test, fluorogenic peptide substrate (Knight et al.). Type of data set: biochemical. The following applies: 298 K, pH 7, 1% DMSO; stated in words only. Here is the method: The compounds of the invention, prepared as above described, were tested in vitro according to the method reported by Knight et al. in FEBS Lett 1992, 296 (3):263.
Catalytic domain of MMP-12 was cloned, expressed and purified according to the procedure reported in Banci et al. Journal of Molecular Catalysis A: Chemical, 2003, Vol. 204-205, pp. 401-408). Preparation of catalytic domain of MMP-1 was performed as follows: proMMP-1 cDNA was cloned into the pET21 (Novagen) expression vector. The recombinant vector was transformed into Escherichia Coli BL21 cells. The bacteria were grown in 2 XYt media and incubated at 37° C. When the cells reached the exponential growth phase, the expression of the protein was induced by adding 0.5 mM of IPTG and the incubation was continued further for four hours. […]
The protein was maintained in presence of inhibitor for 5 min before the substrate was added. Subsequently, after addition of peptidic substrate, the increase of fluorescence intensity was measured vs. time (excitation 328 nm, emission 393 nm) using a Varian/Eclipse fluorimeter.
Matrix metalloproteinases cleave peptidic bond glycine-leucine separating coumarinic group from 2,4-dinitrophenol and so causing a high increase of fluorescence intensity under the conditions indicated above. […]

Another data set can be described thus: Solubility in water. The following applies: stated in words only. Type of data set: physicochemical.

T1 sequence (P39900 106-263 limits assumed): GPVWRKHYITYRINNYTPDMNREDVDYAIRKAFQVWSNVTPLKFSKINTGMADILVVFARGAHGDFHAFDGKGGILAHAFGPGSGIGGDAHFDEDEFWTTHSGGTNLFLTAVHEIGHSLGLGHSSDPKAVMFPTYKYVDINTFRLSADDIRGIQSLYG

With `COc1ccc(S(=O)(=O)NC(CO)C(=O)NO)cc1` (centres unmarked) [Example 7, 3,N-dihydroxy-2-[(4-methoxy-benzenesulfonyl)amino]-propionamide], the “ability to inhibit MMP-12 (from IC50 data)” value in data set [1] was “do not have the inhibition activity and selectivity of present compounds of formula (I)”. The solubility in water result in the data set “Solubility in water” is reported as “good solubility”.
